{"source": "ChEMBL document CHEMBL2424568", "about": "“Phenylpyrazolo[1,5-a]quinazolin-5(4H)-one: a suitable scaffold for the development of noncamptothecin topoisomerase I (Top1) inhibitors” (J Med Chem, 2013)", "note": "Calls of active or inactive are those of the source. The rule behind the calls is not given here.", "data": [{"target": "T1, DNA topoisomerase 1 (Homo sapiens) (UniProt P11387)", "T1 sequence (whole entry)": "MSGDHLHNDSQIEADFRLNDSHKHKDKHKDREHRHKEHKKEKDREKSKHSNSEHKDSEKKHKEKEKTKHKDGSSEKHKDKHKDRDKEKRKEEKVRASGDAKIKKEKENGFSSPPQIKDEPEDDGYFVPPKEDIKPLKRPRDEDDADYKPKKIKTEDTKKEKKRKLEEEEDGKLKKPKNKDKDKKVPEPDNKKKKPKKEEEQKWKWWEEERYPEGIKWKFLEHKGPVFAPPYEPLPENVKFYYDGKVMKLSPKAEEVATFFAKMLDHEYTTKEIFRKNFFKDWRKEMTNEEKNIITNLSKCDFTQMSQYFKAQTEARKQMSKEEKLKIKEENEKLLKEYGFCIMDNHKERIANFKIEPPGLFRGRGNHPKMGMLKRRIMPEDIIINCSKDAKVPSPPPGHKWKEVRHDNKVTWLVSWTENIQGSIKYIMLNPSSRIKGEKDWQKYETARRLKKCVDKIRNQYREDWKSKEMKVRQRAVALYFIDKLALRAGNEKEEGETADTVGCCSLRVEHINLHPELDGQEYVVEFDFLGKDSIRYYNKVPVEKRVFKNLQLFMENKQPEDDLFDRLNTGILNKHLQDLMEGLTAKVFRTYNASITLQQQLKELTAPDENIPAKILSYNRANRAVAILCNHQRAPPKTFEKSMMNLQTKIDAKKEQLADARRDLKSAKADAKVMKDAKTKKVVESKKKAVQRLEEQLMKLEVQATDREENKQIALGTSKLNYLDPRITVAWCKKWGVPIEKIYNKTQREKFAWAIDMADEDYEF", "assay": "Inhibition of recombinant DNA topoisomerase 1 (unknown origin) assessed as inhibition of topoisomerase 1-mediated DNA cleavage at 1 uM after 20 mins by SDS-PAGE analysis", "values": [{"smiles": "CN(C)CCCOc1nc2c(-c3ccc(C(F)(F)F)cc3)cnn2c2ccccc12", "Top1 DNA cleavage inhibition (active/not active)": "inactive"}, {"smiles": "CCN(CC)CCOc1nc2c(-c3ccc(Cl)cc3)cnn2c2ccccc12", "Top1 DNA cleavage inhibition (active/not active)": "inactive"}, {"smiles": "COc1cc2c3c(n(CCCNCCO)c(=O)c2cc1OC)-c1cc2c(cc1C3=O)OCO2", "Top1 DNA cleavage inhibition (active/not active)": "Active"}, {"smiles": "CN(C)CCCn1c(=O)c2ccccc2n2nc(-c3ccccc3)cc12", "Top1 DNA cleavage inhibition (active/not active)": "inactive"}, {"smiles": "Clc1ccc(-c2cnn3c2nc(NCCCc2ncc[nH]2)c2ccccc23)cc1", "Top1 DNA cleavage inhibition (active/not active)": "inactive"}]}, {"target": "T1, DNA topoisomerase 1 (Homo sapiens)", "assay": "Inhibition of recombinant DNA topoisomerase 1 (unknown origin) assessed as inhibition of topoisomerase 1-mediated DNA cleavage at 1 to 100 uM after 20 mins by SDS-PAGE analysis relative to control", "values": [{"smiles": "CN(C)CCCOc1nc2c(-c3ccc(C(F)(F)F)cc3)cnn2c2ccccc12", "Top1 cleavage inhibition (active/inactive)": "inactive"}, {"smiles": "CCN(CC)CCNc1nc2cc(-c3ccccc3)nn2c2ccccc12", "Top1 cleavage inhibition (active/inactive)": "inactive"}, {"smiles": "CCN(CC)CCOc1nc2cc(-c3ccccc3)nn2c2ccccc12", "Top1 cleavage inhibition (active/inactive)": "Active"}, {"smiles": "COc1ccc(-c2cnn3c2nc(NCCN(C)C)c2ccccc23)cc1", "Top1 cleavage inhibition (active/inactive)": "Active"}, {"smiles": "CN(C)CCCNc1nc2c(-c3ccc(Cl)cc3)cnn2c2ccccc12", "Top1 cleavage inhibition (active/inactive)": "Active"}, {"smiles": "CCN(CC)CCNc1nc2c(-c3ccc(C(F)(F)F)cc3)cnn2c2ccccc12", "Top1 cleavage inhibition (active/inactive)": "Active"}, {"smiles": "CN(C)CCn1c(=O)c2ccccc2n2nc(-c3ccccc3)cc12", "Top1 cleavage inhibition (active/inactive)": "Active"}, {"smiles": "COc1ccc(-c2cnn3c2nc(NCCCc2ncc[nH]2)c2ccccc23)cc1", "Top1 cleavage inhibition (active/inactive)": "inactive"}, {"smiles": "CCN(CC)CCOc1nc2c(-c3ccc(OC)cc3)cnn2c2ccccc12", "Top1 cleavage inhibition (active/inactive)": "Active"}, {"smiles": "CCN(CC)CCOc1nc2c(-c3ccccc3)cnn2c2ccccc12", "Top1 cleavage inhibition (active/inactive)": "Active"}, {"smiles": "CCN(CC)CCNc1nc2c(-c3ccc(Cl)cc3)cnn2c2ccccc12", "Top1 cleavage inhibition (active/inactive)": "Active"}, {"smiles": "CN(C)CCCNc1nc2c(-c3ccc(C(F)(F)F)cc3)cnn2c2ccccc12", "Top1 cleavage inhibition (active/inactive)": "Active"}, {"smiles": "CCN(CC)CCNc1nc2c(-c3ccccc3)cnn2c2ccccc12", "Top1 cleavage inhibition (active/inactive)": "Active"}, {"smiles": "COc1ccc(-c2cnn3c2nc(NCCCN(C)C)c2ccccc23)cc1", "Top1 cleavage inhibition (active/inactive)": "Active"}, {"smiles": "COc1ccc(-c2cnn3c2nc(OCCCN(C)C)c2ccccc23)cc1", "Top1 cleavage inhibition (active/inactive)": "Active"}, {"smiles": "CCN(CC)CCOc1nc2c(-c3ccc(Cl)cc3)cnn2c2ccccc12", "Top1 cleavage inhibition (active/inactive)": "Active"}, {"smiles": "CN(C)CCOc1nc2cc(-c3ccccc3)nn2c2ccccc12", "Top1 cleavage inhibition (active/inactive)": "Active"}, {"smiles": "c1ccc(-c2cnn3c2nc(NCCCc2ncc[nH]2)c2ccccc23)cc1", "Top1 cleavage inhibition (active/inactive)": "Active"}, {"smiles": "CN(C)CCOc1nc2c(-c3ccccc3)cnn2c2ccccc12", "Top1 cleavage inhibition (active/inactive)": "Active"}, {"smiles": "COc1ccc(-c2cnn3c2nc(OCCN(C)C)c2ccccc23)cc1", "Top1 cleavage inhibition (active/inactive)": "Active"}, {"smiles": "CCN(CC)CCNc1nc2c(-c3ccc(OC)cc3)cnn2c2ccccc12", "Top1 cleavage inhibition (active/inactive)": "Active"}, {"smiles": "CN(C)CCNc1nc2c(-c3ccc(C(F)(F)F)cc3)cnn2c2ccccc12", "Top1 cleavage inhibition (active/inactive)": "Active"}, {"smiles": "FC(F)(F)c1ccc(-c2cnn3c2nc(NCCCc2ncc[nH]2)c2ccccc23)cc1", "Top1 cleavage inhibition (active/inactive)": "inactive"}, {"smiles": "CN(C)CCNc1nc2c(-c3ccc(Cl)cc3)cnn2c2ccccc12", "Top1 cleavage inhibition (active/inactive)": "Active"}, {"smiles": "CN(C)CCOc1nc2c(-c3ccc(Cl)cc3)cnn2c2ccccc12", "Top1 cleavage inhibition (active/inactive)": "Active"}, {"smiles": "CN(C)CCCn1c(=O)c2ccccc2n2nc(-c3ccccc3)cc12", "Top1 cleavage inhibition (active/inactive)": "inactive"}, {"smiles": "CN(C)CCOc1nc2c(-c3ccc(C(F)(F)F)cc3)cnn2c2ccccc12", "Top1 cleavage inhibition (active/inactive)": "Active"}, {"smiles": "CCN(CC)CCOc1nc2c(-c3ccc(C(F)(F)F)cc3)cnn2c2ccccc12", "Top1 cleavage inhibition (active/inactive)": "inactive"}, {"smiles": "CN(C)CCCOc1nc2c(-c3ccccc3)cnn2c2ccccc12", "Top1 cleavage inhibition (active/inactive)": "Active"}, {"smiles": "c1ccc(-c2cc3nc(NCCCc4ncc[nH]4)c4ccccc4n3n2)cc1", "Top1 cleavage inhibition (active/inactive)": "inactive"}, {"smiles": "CN(C)CCCOc1nc2cc(-c3ccccc3)nn2c2ccccc12", "Top1 cleavage inhibition (active/inactive)": "inactive"}, {"smiles": "CN(C)CCCOc1nc2c(-c3ccc(Cl)cc3)cnn2c2ccccc12", "Top1 cleavage inhibition (active/inactive)": "Active"}, {"smiles": "O=c1c2ccccc2n2nc(-c3ccccc3)cc2n1CCCc1ncc[nH]1", "Top1 cleavage inhibition (active/inactive)": "inactive"}, {"smiles": "Clc1ccc(-c2cnn3c2nc(NCCCc2ncc[nH]2)c2ccccc23)cc1", "Top1 cleavage inhibition (active/inactive)": "inactive"}]}]}
